Results as given in patent US6643591B1, “Use of computational and experimental data to model organic compound reactivity in cytochrome P450 mediated reactions and to optimize the design of pharmaceuticals” (University of Pittsburgh, priority 1998, dated 2003).
Several values for one entry are separate records, joined by “and”; a condition that tells them apart may be missing. Identical values can stand only once. Marks after values point to notes of the source that are not given here.

Columns and labels:
CYP4B1 = CYP4B1 (Oryctolagus cuniculus, UniProt P15128)
CYP4B1, sequence (P15128 whole entry, canonical isoform): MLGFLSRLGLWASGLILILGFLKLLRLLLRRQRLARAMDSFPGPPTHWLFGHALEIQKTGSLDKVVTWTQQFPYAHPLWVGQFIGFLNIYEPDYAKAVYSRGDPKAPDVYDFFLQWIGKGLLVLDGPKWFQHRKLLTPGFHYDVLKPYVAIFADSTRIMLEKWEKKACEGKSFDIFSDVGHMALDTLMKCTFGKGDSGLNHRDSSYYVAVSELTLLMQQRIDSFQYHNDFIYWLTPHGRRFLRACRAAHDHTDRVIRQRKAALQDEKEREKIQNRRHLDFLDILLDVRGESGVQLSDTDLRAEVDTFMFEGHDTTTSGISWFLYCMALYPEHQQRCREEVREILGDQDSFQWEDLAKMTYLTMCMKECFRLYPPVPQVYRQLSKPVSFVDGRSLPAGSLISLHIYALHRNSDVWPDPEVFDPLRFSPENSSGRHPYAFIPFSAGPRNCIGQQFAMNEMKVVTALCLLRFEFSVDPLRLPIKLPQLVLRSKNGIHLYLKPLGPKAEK

CYP2B6, CYP2C9, CYP4B1 = assay: in vitro; details: pH 7.4, Regioselectivity BzH:Arom, range, isoforms 2B6, 2C9 and 4B1
CYP1A2, CYP2B1, CYP2E1 = assay: in vitro; details: pH 7.4, Regioselectivity BzH:Arom, range, isoforms 1A2, 2B1 and 2E1
multiple CYP isoforms = assay: in vitro; details: pH 7.4, Regioselectivity BzH:ODAlk, range, range over the isoforms
CYP1A2 = target: T1, CYP1A2 (Homo sapiens, UniProt P05177); details: pH 7.4
T1 sequence (P05177 1-516): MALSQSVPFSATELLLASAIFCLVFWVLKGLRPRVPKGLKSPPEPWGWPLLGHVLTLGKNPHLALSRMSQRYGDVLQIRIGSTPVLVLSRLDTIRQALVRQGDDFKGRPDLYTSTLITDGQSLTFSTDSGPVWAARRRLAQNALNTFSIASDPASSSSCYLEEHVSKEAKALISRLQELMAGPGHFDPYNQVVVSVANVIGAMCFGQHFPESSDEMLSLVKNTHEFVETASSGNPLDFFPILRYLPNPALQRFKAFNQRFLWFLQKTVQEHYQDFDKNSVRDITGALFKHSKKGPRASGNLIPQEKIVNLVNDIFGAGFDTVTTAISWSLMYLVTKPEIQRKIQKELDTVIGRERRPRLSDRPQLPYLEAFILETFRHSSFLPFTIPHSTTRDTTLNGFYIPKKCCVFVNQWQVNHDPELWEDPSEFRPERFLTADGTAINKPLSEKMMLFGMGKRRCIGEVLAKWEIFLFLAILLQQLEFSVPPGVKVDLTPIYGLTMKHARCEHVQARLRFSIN

CYP2C9 [1] = target: T2, CYP2C9 (Homo sapiens, UniProt P11712); details: human, pH 7.4
T2 sequence (P11712 whole entry): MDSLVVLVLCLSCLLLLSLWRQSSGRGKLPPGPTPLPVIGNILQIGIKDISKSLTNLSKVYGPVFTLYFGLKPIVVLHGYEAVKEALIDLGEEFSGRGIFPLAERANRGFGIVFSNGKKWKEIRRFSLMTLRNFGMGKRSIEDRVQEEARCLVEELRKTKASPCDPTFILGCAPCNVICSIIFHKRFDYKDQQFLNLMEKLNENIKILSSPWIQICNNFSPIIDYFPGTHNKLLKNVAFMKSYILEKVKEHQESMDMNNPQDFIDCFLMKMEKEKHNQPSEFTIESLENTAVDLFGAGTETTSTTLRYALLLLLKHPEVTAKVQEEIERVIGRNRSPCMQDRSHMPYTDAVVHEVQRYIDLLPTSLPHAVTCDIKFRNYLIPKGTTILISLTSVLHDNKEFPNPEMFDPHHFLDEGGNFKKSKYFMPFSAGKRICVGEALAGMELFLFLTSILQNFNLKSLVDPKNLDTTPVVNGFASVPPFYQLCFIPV

CYP2E1 [2] = target: T3, CYP2E1 (Homo sapiens, UniProt P05181); assay: in vitro
T3 sequence (P05181 whole entry): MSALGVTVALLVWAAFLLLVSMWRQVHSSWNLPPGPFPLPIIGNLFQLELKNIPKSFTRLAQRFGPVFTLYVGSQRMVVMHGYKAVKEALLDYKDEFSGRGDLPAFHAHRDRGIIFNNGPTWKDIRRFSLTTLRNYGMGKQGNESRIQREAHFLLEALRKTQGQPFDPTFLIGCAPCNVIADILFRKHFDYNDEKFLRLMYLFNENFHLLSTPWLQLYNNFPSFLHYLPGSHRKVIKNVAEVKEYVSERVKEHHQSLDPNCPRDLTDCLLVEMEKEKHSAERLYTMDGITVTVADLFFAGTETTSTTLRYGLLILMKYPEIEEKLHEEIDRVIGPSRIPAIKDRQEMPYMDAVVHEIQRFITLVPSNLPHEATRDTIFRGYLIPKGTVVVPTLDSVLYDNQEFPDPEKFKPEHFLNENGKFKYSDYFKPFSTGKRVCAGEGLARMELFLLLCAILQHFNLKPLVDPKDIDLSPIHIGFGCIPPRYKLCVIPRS

CYP2B6 = target: T4, CYP2B6 (Homo sapiens, UniProt P20813); assay: Regioselectivity and inter-/intramolecular KIE for 4-methylanisole (Table 15); assay type: in vitro ADME
T4 sequence (P20813 1-491): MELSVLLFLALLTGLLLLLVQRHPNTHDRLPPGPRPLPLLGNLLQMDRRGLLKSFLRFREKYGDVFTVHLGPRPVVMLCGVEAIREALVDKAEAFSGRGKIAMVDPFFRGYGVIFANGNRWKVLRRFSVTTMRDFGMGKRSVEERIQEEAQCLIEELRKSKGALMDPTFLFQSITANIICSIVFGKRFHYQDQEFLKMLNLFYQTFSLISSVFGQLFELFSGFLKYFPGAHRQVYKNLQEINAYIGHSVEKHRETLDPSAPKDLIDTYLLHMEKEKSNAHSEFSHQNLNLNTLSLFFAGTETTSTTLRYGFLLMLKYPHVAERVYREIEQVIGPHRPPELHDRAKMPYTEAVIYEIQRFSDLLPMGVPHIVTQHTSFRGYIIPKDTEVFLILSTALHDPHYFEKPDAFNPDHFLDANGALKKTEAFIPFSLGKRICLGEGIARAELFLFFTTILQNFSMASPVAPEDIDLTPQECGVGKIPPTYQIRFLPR

CYP2C9 [3] = target: T2, CYP2C9; assay: as above; assay type: in vitro ADME
CYP1A1 = target: T5, CYP1A1 (Homo sapiens, UniProt P04798)
T5 sequence (P04798 1-512): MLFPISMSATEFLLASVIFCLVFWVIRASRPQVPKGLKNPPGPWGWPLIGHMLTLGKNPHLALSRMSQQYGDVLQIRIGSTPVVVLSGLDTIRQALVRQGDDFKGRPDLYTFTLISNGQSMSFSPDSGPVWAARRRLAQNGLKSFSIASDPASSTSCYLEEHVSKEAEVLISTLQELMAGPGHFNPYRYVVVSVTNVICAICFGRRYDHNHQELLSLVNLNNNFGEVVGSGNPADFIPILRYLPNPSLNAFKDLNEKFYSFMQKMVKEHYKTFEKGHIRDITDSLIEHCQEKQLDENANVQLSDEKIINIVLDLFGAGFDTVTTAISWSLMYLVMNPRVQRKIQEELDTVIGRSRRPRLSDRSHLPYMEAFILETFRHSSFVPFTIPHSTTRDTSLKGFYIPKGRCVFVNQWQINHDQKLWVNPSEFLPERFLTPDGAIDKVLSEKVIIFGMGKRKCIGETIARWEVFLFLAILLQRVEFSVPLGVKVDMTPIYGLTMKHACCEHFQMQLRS

CYP2E1 [4] = target: T3, CYP2E1; assay: Regioselectivity and inter-/intramolecular KIE for 4-methylanisole (Table 15); assay type: in vitro ADME

COc1ccccc1C [o-Methylanisole, o-methylanisole]
INTER KIE (combined intermolecular competitive KIE) (CYP4B1): 14.94
Intramolecular KIE (kH/kD) (CYP4B1): 6.90
P, calculated primary KIE (CYP4B1): 8.9
S, calculated secondary KIE (CYP4B1): 1.29
Metabolite profile, o-CR (CYP4B1; pH 7.4): 59 Mol-%
Metabolite profile, o-MBA (CYP4B1; pH 7.4): 39 Mol-%
Ratio ODAlk:Arom (CYP4B1; pH 7.4): 0.03
nmol 4M3MPh (CYP4B1; pH 7.4): 1.1* nmol
nmol TP (CYP4B1; pH 7.4): 48 nmol
nmol o-CR (CYP4B1; pH 7.4): 29* nmol
nmol o-MBA (CYP4B1; pH 7.4): 18.7* nmol
selectivity ratio at 20 min, […] (CYP2B6, CYP2C9, CYP4B1): 1.6 to 22
selectivity ratio at 20 min, […] (CYP1A2, CYP2B1, CYP2E1): 0.3 to 0.6
selectivity ratio at 20 min, […] (multiple CYP isoforms): 1.2 to 3
INTER KIE (combined intermolecular competitive KIE) (CYP1A2): 9.15
Intramolecular KIE (kH/kD) (CYP1A2): 5.7
Metabolite profile, Phenol (CYP1A2): 54 Mol-%
Metabolite profile, o-CR (CYP1A2): 12 Mol-%
Metabolite profile, o-MBA (CYP1A2): 34 Mol-%
P, calculated primary KIE (CYP1A2): 6.7
Ratio of ring hydroxylation para to the methoxy group to ODAlk (CYP1A2): 4.5
S, calculated secondary KIE (CYP1A2): 1.17
nmol 4M3MPh (CYP1A2): 9.7* nmol
nmol TP (CYP1A2): 18.0 nmol
nmol o-CR (CYP1A2): 2.2* nmol
nmol o-MBA (CYP1A2): 6.1* nmol
INTER KIE (combined intermolecular competitive KIE) (CYP2C9 [1]): 12
Intramolecular KIE (kH/kD) (CYP2C9 [1]): 6.3
Metabolite profile, Phenol (CYP2C9 [1]): 32 Mol-%
Metabolite profile, o-CR (CYP2C9 [1]): 22 Mol-%
Metabolite profile, o-MBA (CYP2C9 [1]): 46 Mol-%
P, calculated primary KIE (CYP2C9 [1]): 8
Ratio of ring hydroxylation para to the methoxy group to ODAlk (CYP2C9 [1]): 1.5
S, calculated secondary KIE (CYP2C9 [1]): 1.2
nmol TP (CYP2C9 [1]): 6.9* nmol
nmol o-CR (CYP2C9 [1]): 1.5* nmol
nmol o-MBA (CYP2C9 [1]): 3.1* nmol
selectivity ratio (CYP2E1 [2]; pH 7.4, Regioselectivity BzH:Arom): 0.48
selectivity ratio (CYP2E1 [2]; pH 7.4, Regioselectivity BzH:ODAlk): 1.6

COc1ccc(C)cc1 [p-Methylanisole, p-methylanisole]
INTER KIE (combined intermolecular competitive KIE) (CYP4B1): 1.4 and 1.42
Intramolecular KIE (kH/kD) (CYP4B1): 6.08
nmol p-CR (CYP4B1; pH 7.4): 48* nmol
nmol p-MBA (CYP4B1; pH 7.4): 63* nmol
nmol total TP (CYP4B1; pH 7.4): 111* nmol
INTER KIE (combined intermolecular competitive KIE) (CYP1A2): 5.9
P, calculated primary KIE (CYP1A2): 5.0
S, calculated secondary KIE (CYP1A2): 1.08
Intermolecular KIE (CYP2B6; CYP2B6 (Table 15)): 7.60
Intramolecular KIE (CYP2B6; CYP2B6 (Table 15)): 4.58
δΔG^† (CYP2B6; CYP2B6, benzylic oxidation vs O-dealkylation): 0.86 kcal/mol
INTER KIE (combined intermolecular competitive KIE) (CYP2C9 [1]): 2.6
Intermolecular KIE (CYP2C9 [3]; CYP2C9 (Table 15)): 3.52
Intramolecular KIE (CYP2C9 [3]; CYP2C9 (Table 15)): 3.92
δΔG^† (CYP2C9 [3]; CYP2C9, benzylic oxidation vs O-dealkylation): 1.87 kcal/mol
Intermolecular KIE (CYP1A1; CYP1A1 (Table 15)): 2.17
Intramolecular KIE (CYP1A1; CYP1A1 (Table 15)): 4.23
δΔG^† (CYP1A1; CYP1A1, benzylic oxidation vs O-dealkylation): 1.12 kcal/mol
Intermolecular KIE (CYP2E1 [4]; CYP2E1 (Table 15)): 6.53
Intramolecular KIE (CYP2E1 [4]; CYP2E1 (Table 15)): 4.02
δΔG^† (CYP2E1 [4]; CYP2E1, benzylic oxidation vs O-dealkylation): 1.06 kcal/mol
